For one test, the system named is OCI-AML3 (N-Ras Q61L). Description: Proliferation inhibitory activity, OCI-AML3. It counts as cell-based, human. As for the experimental part: (§1) The inhibitory activities of the compounds of the present disclosure against the proliferation of the mt-NRAS (G12D) Ba/F3 and OCI-AML3 (mt-NRAS) cell lines were measured and the GI50 values thereof were calculated.
A further test concerns Ba/F3 (N-Ras G12D). Description: Proliferation inhibitory activity, Ba/F3 N-Ras G12D. The format is cell-based. Here is the method: as §1
The target in another test is ACK1 (Homo sapiens, UniProt Q07912). Description: Inhibitory activity against ACK1 kinase (IC50). It counts as biochemical. As for the experimental part:
(§2) The inhibitory activities of the compounds of the present disclosure against two kinases, GCK and ACK1, were measured, and the IC50 values thereof were calculated.

A further test has as its target T1, GCK (Homo sapiens, UniProt Q12851).
T1 sequence (Q12851 1-820): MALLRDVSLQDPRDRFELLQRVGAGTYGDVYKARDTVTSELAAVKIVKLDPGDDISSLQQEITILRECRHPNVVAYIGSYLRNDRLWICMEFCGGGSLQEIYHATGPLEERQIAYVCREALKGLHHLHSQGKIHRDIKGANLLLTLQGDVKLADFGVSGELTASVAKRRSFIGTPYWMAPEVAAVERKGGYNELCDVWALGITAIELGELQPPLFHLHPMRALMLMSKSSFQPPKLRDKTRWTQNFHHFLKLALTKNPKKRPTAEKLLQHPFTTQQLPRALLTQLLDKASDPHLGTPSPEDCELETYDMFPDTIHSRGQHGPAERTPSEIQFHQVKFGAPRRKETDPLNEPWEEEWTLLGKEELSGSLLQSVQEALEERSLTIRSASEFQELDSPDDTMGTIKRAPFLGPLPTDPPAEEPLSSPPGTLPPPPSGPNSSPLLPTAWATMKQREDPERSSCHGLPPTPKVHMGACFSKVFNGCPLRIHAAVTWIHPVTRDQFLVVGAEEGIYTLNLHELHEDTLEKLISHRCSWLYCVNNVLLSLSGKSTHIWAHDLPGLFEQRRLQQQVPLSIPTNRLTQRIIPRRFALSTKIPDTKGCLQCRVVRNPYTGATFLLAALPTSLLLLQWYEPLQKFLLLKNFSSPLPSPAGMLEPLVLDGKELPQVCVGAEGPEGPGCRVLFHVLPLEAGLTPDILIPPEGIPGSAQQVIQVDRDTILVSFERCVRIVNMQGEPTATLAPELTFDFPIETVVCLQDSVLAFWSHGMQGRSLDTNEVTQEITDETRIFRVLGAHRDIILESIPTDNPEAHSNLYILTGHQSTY
The test is described as follows: Inhibitory activity against GCK kinase (IC50). It counts as biochemical. As for the experimental part: as §2

Broadly, the GI50 is the concentration that inhibits growth by half. High values mean lower sensitivity of the cells, low ones greater sensitivity of the cells. The IC50 is the point on the concentration scale where inhibition reaches its midpoint. Low readings indicate inhibition by little substance, high ones a need for much substance.

Chain of ACK1 (Q07912 whole entry): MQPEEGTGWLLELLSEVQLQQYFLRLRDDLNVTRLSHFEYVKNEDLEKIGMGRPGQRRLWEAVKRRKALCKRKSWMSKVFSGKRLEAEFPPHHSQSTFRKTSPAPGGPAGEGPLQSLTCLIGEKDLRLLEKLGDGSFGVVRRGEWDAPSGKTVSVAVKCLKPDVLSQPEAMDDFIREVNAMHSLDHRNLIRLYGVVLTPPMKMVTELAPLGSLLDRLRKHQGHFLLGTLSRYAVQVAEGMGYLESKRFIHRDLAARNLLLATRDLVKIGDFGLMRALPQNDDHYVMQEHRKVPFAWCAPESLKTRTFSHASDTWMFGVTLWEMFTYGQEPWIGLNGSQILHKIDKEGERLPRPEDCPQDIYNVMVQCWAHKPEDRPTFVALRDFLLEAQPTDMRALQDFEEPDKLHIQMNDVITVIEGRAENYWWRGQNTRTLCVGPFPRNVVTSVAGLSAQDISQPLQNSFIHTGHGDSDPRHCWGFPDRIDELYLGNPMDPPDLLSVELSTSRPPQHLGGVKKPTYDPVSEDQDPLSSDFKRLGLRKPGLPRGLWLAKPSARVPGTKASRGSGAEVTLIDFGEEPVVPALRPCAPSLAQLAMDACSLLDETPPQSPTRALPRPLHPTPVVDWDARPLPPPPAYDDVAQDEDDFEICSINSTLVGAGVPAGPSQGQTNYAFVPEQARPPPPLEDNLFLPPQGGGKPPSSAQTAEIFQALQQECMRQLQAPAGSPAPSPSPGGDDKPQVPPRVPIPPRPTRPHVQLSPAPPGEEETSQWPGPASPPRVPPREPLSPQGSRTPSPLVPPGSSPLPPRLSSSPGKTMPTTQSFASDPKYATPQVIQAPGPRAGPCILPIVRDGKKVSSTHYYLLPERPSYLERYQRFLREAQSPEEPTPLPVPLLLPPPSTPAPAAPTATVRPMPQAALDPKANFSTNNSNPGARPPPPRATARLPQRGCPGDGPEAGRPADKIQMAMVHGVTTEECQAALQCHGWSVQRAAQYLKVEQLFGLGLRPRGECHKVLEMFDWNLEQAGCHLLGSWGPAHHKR

Consider `Cc1ccc(NC(=O)c2cccc(C(F)(F)F)c2)cc1-c1cc2cnc(Nc3ccc(N4CCC(O)CC4)cc3)nc2c(=O)n1C` [Compound No. 19, N-(3-(2-((4-(4-hydroxypiperidin-1-yl)phenyl)amino)-7-methyl-8-oxo-7,8-dihydropyrido[3,4-d]pyrimidin-6-yl)-4-methylphenyl)-3-(trifluoromethyl)benzamide], for which the GI50 in the test on OCI-AML3 (N-Ras Q61L) (Homo sapiens, OCI-AML-3) fell in the range of 0.5 to 3 µM; in the test with Ba/F3 (N-Ras G12D) (Mus musculus, BaF3), 0.5 to 3 µM.
For `Cc1ccc(Nc2ncc3cc(-c4cc(NC(=O)c5cccc(C(F)(F)F)c5)ccc4C)n(C)c(=O)c3n2)cn1` [Compound No. 13, N-(4-methyl-3-(7-methyl-2-((6-methylpyridin-3-yl)amino)-8-oxo-7,8-dihydropyrido[3,4-d]pyrimidin-6-yl)phenyl)-3-(trifluoromethyl)benzamide], the IC50 was < 100 nM at ACK1 and 100 to 1000 nM at GCK. Besides, the GI50 in the test with OCI-AML3 (N-Ras Q61L) (Homo sapiens, OCI-AML-3) was < 0.5 µM; in the test on Ba/F3 (N-Ras G12D) (Mus musculus, BaF3) it was < 0.5 µM.
Regarding `Cc1ccc(NC(=O)c2cccc(C(F)(F)F)c2)cc1-c1cc2cnc(NCCN3CCOCC3)nc2c(=O)n1C` [Compound No. 6, N-(4-methyl-3-(7-methyl-2-((2-morpholinoethyl)amino)-8-oxo-7,8-dihydropyrido[3,4-d]pyrimidin-6-yl)phenyl)-3-(trifluoromethyl)benzamide], the GI50 in the test with OCI-AML3 (N-Ras Q61L) (Homo sapiens, OCI-AML-3) was in the range of 0.5 to 3 µM; with Ba/F3 (N-Ras G12D) (Mus musculus, BaF3), 0.5 to 3 µM.
For the compound `Cc1ccc(NC(=O)c2cccc(C(F)(F)F)c2)cc1-c1cc2cnc(N3CCOCC3)nc2c(=O)n1C` [Compound No. 12, N-(4-methyl-3-(7-methyl-2-morpholino-8-oxo-7,8-dihydropyrido[3,4-d]pyrimidin-6-yl)phenyl)-3-(trifluoromethyl)benzamide], the GI50 is 0.5 to 3 µM in the test on OCI-AML3 (N-Ras Q61L) (Homo sapiens, OCI-AML-3) and > 5 µM with Ba/F3 (N-Ras G12D) (Mus musculus, BaF3).
As to `Cc1ccc(NC(=O)c2cccc(C(F)(F)F)c2)cc1-c1cc2cnc(NCCSCc3ccco3)nc2c(=O)n1C` [Compound No. 11, N-(3-(2-((2-((furan-2-ylmethyl)thio)ethyl)amino)-7-methyl-8-oxo-7,8-dihydiropyrido[3,4-d]pyrimidin-6-yl)-4-methylphenyl)-3-(trifluoromethyl)benzamide], the GI50 was 3 to 5 µM with OCI-AML3 (N-Ras Q61L) (OCI-AML3 (N-Ras Q61L)) and > 5 µM in the test with Ba/F3 (N-Ras G12D) (Ba/F3 (N-Ras G12D)).
With `CCN1CCN(c2ccc(Nc3ncc4cc(-c5cc(NC(=O)c6cccc(C(F)(F)F)c6)ccc5C)n(C)c(=O)c4n3)cc2)CC1` [Compound No. 17, N-(3-(2-((4-(4-ethylpiperazin-1-yl)phenyl)amino)-7-methyl-8-oxo-7,8-dihydropyrido[3,4-d]pyrimidin-6-yl)-4-methylphenyl)-3-(trifluoromethyl)benzamide], the GI50 was < 0.5 µM in the test on OCI-AML3 (N-Ras Q61L) (Homo sapiens, OCI-AML-3) and 0.5 to 3 µM with Ba/F3 (N-Ras G12D) (Mus musculus, BaF3).
`Cc1ccc(Nc2ncc3cc(-c4cc(NC(=O)c5cccc(C(F)(F)F)c5)ccc4C)[nH]c(=O)c3n2)cn1` [Compound No. 54, N-(4-methyl-3-(2-((6-methylpyridin-3-yl)amino)-8-oxo-7,8-dihydropyrido[3,4-d]pyrimidin-6-yl)phenyl)-3-(trifluoromethyl)benzamide]: the GI50 with OCI-AML3 (N-Ras Q61L) (Homo sapiens, OCI-AML-3) is < 0.5 µM; in the test on Ba/F3 (N-Ras G12D) (Mus musculus, BaF3) it was 0.5 to 3 µM.
The matching figures for `COc1cc(N2CCOCC2)ccc1Nc1ncc2cc(-c3cc(NC(=O)c4cccc(C(F)(F)F)c4)ccc3C)n(C)c(=O)c2n1` [Compound No. 22, N-(3-(2-((2-methoxy-4-morpholinophenyl)amino)-7-methyl-8-oxo-7,8-dihydropyrido[3,4-d]pyrimidin-6-yl)-4-methylphenyl)-3-(trifluoromethyl)benzamide]: > 5 µM and > 5 µM.
Regarding `COc1ccc(CNc2ncc3cc(-c4cc(NC(=O)c5cccc(C(F)(F)F)c5)ccc4C)n(C)c(=O)c3n2)cc1` [Compound No. 10, N-(3-(2-((4-methoxybenzyl)amino)-7-methyl-8-oxo-7,8-dihydropyrido[3,4-d]pyrimidin-6-yl)-4-methylphenyl)-3-(trifluoromethyl)benzamide], the concentration for 50% growth inhibition (GI50) with OCI-AML3 (N-Ras Q61L) (Homo sapiens, OCI-AML-3) is > 5 µM; in the test with Ba/F3 (N-Ras G12D) (Mus musculus, BaF3) it was > 5 µM.
Consider `Cc1ccc(NC(=O)c2cccc(C(F)(F)F)c2)cc1-c1cc2cnc(NC3CC3)nc2c(=O)[nH]1` [Compound No. 53, N-(3-(2-(cyclopropylamino)-8-oxo-7,8-dihydropyrido[3,4-d]pyrimidin-6-yl)-4-methylphenyl)-3-(trifluoromethyl)benzamide], for which the IC50 against ACK1 was < 100 nM; against GCK, 100 to 1000 nM. The GI50 was < 0.5 µM with OCI-AML3 (N-Ras Q61L) (Homo sapiens, OCI-AML-3) and < 0.5 µM in the test with Ba/F3 (N-Ras G12D) (Mus musculus, BaF3).
As to `Cc1ccc(NC(=O)c2cccc(C(F)(F)F)c2)cc1-c1cc2cnc(Nc3ccc(C(=O)N(C)C)cc3)nc2c(=O)n1C` [Compound No. 15], the GI50 was in the range of 0.5 to 3 µM with OCI-AML3 (N-Ras Q61L) (Homo sapiens, OCI-AML-3) and 0.5 to 3 µM with Ba/F3 (N-Ras G12D) (Mus musculus, BaF3).
As for `Cc1ccc(NC(=O)c2cccc(C(F)(F)F)c2)cc1-c1cc2cnc(NC3CC3)nc2c(=O)n1C` [Compound No. 1, N-(3-(2-(cyclopropylamino)-7-methyl-8-oxo-7,8-dihydropyrido[3,4-d]pyrimidin-6-yl)-4-methylphenyl)-3-(trifluoromethyl)benzamide], the GI50 was in the range of 0.5 to 3 µM in the test with OCI-AML3 (N-Ras Q61L) (Homo sapiens, OCI-AML-3) and 0.5 to 3 µM with Ba/F3 (N-Ras G12D) (Mus musculus, BaF3).
As for `Cc1ccc(NC(=O)c2cccc(C(F)(F)F)c2)cc1-c1cc2cnc(NCCO)nc2c(=O)n1C` [Compound No. 2, N-(3-(2-((2-hydroxyethyl)amino)-7-methyl-8-oxo-7,8-dihydropyrido[3,4-d]pyrimidin-6-yl)-4-methylphenyl)-3-(trifluoromethyl)benzamide], the GI50 was 0.5 to 3 µM in the test with OCI-AML3 (N-Ras Q61L) (Homo sapiens, OCI-AML-3) and 0.5 to 3 µM in the test with Ba/F3 (N-Ras G12D) (Mus musculus, BaF3).

For the origin of these results see US20260070903A1, “NOVEL PYRIDO[3,4-D]PYRIMIDIN-8-ONE DERIVATIVE HAVING PROTEIN KINASE INHIBITORY ACTIVITY, AND PHARMACEUTICAL COMPOSITION FOR PREVENTING, ALLEVIATING, OR TREATING CANCER, COMPRISING SAME” (KOREA INSTITUTE OF SCIENCE AND TECHNOLOGY, priority 2019, published 2026).
